Measured values as given in ChEMBL document CHEMBL1141389, “Bioactive diterpenes from Orthosiphon labiatus and Salvia africana-lutea” (J Nat Prod, 2007).
Values after ≈ are worked out from the molar mass of the structure shown. Active and inactive are the calls of the source. The calls are words filed in the database; no cut-off is given here.

What was measured:
[1] = system: Mycobacterium tuberculosis; assay: Antimycobacterial activity against Mycobacterium tuberculosis H37Rv ATCC 27294; assay type: functional
MCF7 [2] = assay: Cytotoxicity against human MCF7 cells at 650 uM; assay type: cell-based; conditions: mcf7, 650 µM
[3] = system: Mycobacterium tuberculosis; assay: Antimycobacterial activity against Mycobacterium tuberculosis H37Rv ATCC 27294 at 650 uM; assay type: functional, organism-based
MCF7 [4] = assay: Cytotoxicity against human MCF7 cells; assay type: cell-based

Compound | MIC [1] [µM] | Activity (MCF7 [2]) | Activity [3] | IC50 (MCF7 [4]) [µM]
C=C/C(C)=C/C[C@H]1C(=C)CC[C@@H]2[C@]1(C)C[C@@H](O)C[C@@]2(C)C(=O)O | 157 (≈ 50 µg/mL) | Not Active |  | 
C=C/C(C)=C/C[C@H]1C(=C)CC[C@H]2[C@](C)(CO)C[C@H](O)C[C@]12C |  |  | inactive | 82
COC(=O)[C@]12CCCC(C)(C)[C@@H]1CCc1cc(C(C)C)c(OC)c(O)c12 | 28 (≈ 10.1 µg/mL) |  |  | 69
CC(C)c1cc2c(c(O)c1O)[C@@]13CCCC(C)(C)[C@@H]1C[C@@H]2OC3=O [CARNOSOL] |  | Not Active | inactive | 
